Here are results for two molecules from patent US20060189539A1, “Novel GnRH analogues with antitumour effects and pharmaceutical compositions thereof” (priority 1994, published 2006).

One assay concerns MDA-MB-231 xenograft. Kind of assay: In vivo antitumour effect on MDA-MB-231 xenograft. More on the design: species or system immunosuppressed CBA/Ca mice. The protocol: The immunosuppression of mice was carried out by using the method of Steel et al. (1978).
CBA/Ca female mice of about 6 weeks old were thymectomized and then, after one week, they were irradiated with 60Co (whole body irradiation; the lethal dose is 9.5 Gray). Within 24 hours 3 to 5×10^5 myelocytes were injected to the animals. Beneath the skin of the immunosuppressed mice 2×10^7 tumour cells or, in the case of later passages, about 2 mm^3 of tumour cells or in the case of later, additional passages about 2 mm^3 of tumour pieces were implanted. […] The treatment with steroid hormone was stopped by at least one week before beginning the investigation.
Recent investigations have begun on 28 animals bearing MCF-7 xenograft .and on 28 animals bearing MDA-MB-231 xenograft. On animals bearing MCF-7 tumour the treatment was commenced in the 5th week following xeno-transplantation; the tumour volume was 205 to 225 mm^3. On animals bearing MDA-MB-231 tumour, the treatment was started in the 4th week after xeno-transplantation with a tumour volume of 140 to 150 mm^3. […] The control groups were daily treated with physiological saline s.c. (Each treated group consisted of 7 animals.)
A more recent study was started on 28 animals bearing. MDA-MB-231 xenograft. The treatment was begun in the 4th or 5th week following xenotransplantation. The tumour volume was 0.165 to 0.194 cm3. […] (For treatment of the control group, see the preceding Examples). Each group consisted of 7 animals.

In assay [1] the test system is Ishikawa endometrium tumour cell culture. Kind of assay: Inhibition of colony formation (dose-survival), Example 48. The settings on record: within the dose range used (1-50 μM). The class given is cell-based, human. From the text: (§1) MCF-7 human mammary carcinoma cell line was stabilized in 1973 by Soule et al. from the pleural fluid of a patient suffering from mammary carcinoma. MDA-MB-231 human mammary carcinoma cell line was isolated and stabilized by Cailleau et al. in 1974 similarly from pleural fluid. Both cell lines grow in monolayer. MCF-7 and MDA-MB-231 human mammary carcinoma cell lines are maintained in plastic flasks (Greiner), in Dulbecco-modified Eagle-MEM (DMEM, GIBCO) liquid nutrient medium containing 10% of fetal calf serum. MCF-7 cell line is estradiol receptor (ER)-positive containing proteins specifically binding GnRH. Thus, it represents, a useful model system for investigating the direct effect of GnRH mediated by the GnRH receptor. Being ER-negative and GnRH receptor-positive, MDA-MB-231 cell line is similarly suitable to study the direct effect of GnRH. PC3 human prostate carcinoma cell line was stabilized in cell culture by Kaighn et al. in 1979. The cells are of epithelial type and form compact colonies in clonogenic assays. The Ishikawa cell line originates from human endometrial adenocarcinoma [M. Nishida et al.: Acta Obstet. Gynecol. Jpn. 37, 1103-1111 (1985)], it is epithelial in its character and contains steroid-as well as GnRH receptors.
(§2) The examination gives accurate information about the cell-damaging effect of the substance tested as a function of varying doses. The treatment was carried out once; the colonies formed from the surviving cells were counted after 8-12 days. […] A part of the arrested cells again entered the cycle, an other part of them might be destroyed (apoptosis). […] In the case of a dose-response investigation, colonies containing less than 15 cells were not counted. 300 cells were put into each Petri dishes of 3.5 cm in diameter. The treatment was once carried out 24 hours after setting, then the colonies formed were counted after 8-12 days. The cells were treated once after 24 hours with 1-50 μM of various GnRH analogues of Examples above or with 1-50 μM of GnRH-III, respectively. The percentages of inhibition obtained on MCF-7, MDA-MB-231, PC3 and Ishikawa cells, respectively, together with the dose of the active agent used are shown in Table VIII.

The test system of assay [2] is PC3 prostate tumour cell culture. The assay is described as above. The class given is cell-based, human. The settings on record: 50 μM.
From the text: as §1, §2

Another assay has as its system ovulation of female rats. The settings on record: prolonged treatment for three cycles, even in high doses; cited from earlier work.
The subject of assay [3] is MCF-7 and MDA-MB-231 cell lines. The settings on record: 30 μM. The protocol:
The procedure of treatment was as follows. After trypsinization the cells, 400,000 cells of MCF-7, MDA-MB-231 human mammary carcinoma, PC3 human prostate carcinoma or Ishikawa human endometrium tumour each were passed into Petri dishes of 10 cm in diameter. Starting from the day following transfer, the cells were treated with the substances to be tested in solution prepared with the nutrient medium during the exponential growth phase. The cultures were treated with 1 to 50 μM (calculated for the total volume of the culture) of MI-1544 GnRH antagonist, MI-1892 chicken GnRH antagonist or SJ-1004 GnRH antagonist analogues as well as synthetic lamprey GnRH-III hormone in every two days and the cell count was determined on the 7th day.

Assay [4] has as its system LH release from rat hypophysis. The conditions noted are these: superfusion; cited from earlier work.
In assay [5] the test system is MCF-7 human mammary carcinoma cell line. The assay can be described thus: Inhibition of colony formation (dose-survival), Example 48. The class given is cell-based. The settings on record: 50 μM.
Another assay has as its system MCF-7 cells. Kind of assay: Inhibition of cell division (cell count), Example 49. The class given is cell-based, human. The settings on record: MCF-7 (2x); 30 μM. The protocol:
After being treated with trypsin, 300,000 each of MCF-7, MDA-MB-231, PC3 or Ishikawa cells, respectively, were passed into Petri dishes of 10 cm in diameter. Starting from the day following the setting, the cells were treated with 1-50 μM of the GnRH analogue in the exponential growth phase. During the experiment lasting for 5 days, the cells were treated in every two days with the peptide hormone dissolved in the nutrient medium, then the cell count was determined on the sixth day.

The mark [6] stands for this setting: 1 × 100 μg daily s.c., week 6 (Table V).

In the case of `NCCCC[C@H](NC(=O)[C@H](Cc1c[nH]c2ccccc12)NC(=O)[C@H](CC(=O)O)NC(=O)[C@H](Cc1c[nH]cn1)NC(=O)[C@H](CO)NC(=O)[C@H](Cc1c[nH]c2ccccc12)NC(=O)[C@H](Cc1c[nH]cn1)NC(=O)[C@@H]1CCC(=O)N1)C(=O)N1CCC[C@H]1C(=O)NCC(N)=O` [GnRH-III, reference compound], in the assay with MDA-MB-231 xenograft (100 μg daily s.c.), the “Effect on the rate of tumour growth” value is listed as “did not inhibit the rate of tumour growth”. In addition, the “Tumour volume as control (%)” value in the assay with MDA-MB-231 xenograft (1 × 100 μg daily s.c., week 4) worked out at 85%; in the assay with MDA-MB-231 xenograft (1 × 100 μg daily s.c., week 6), 85%; in the assay on MDA-MB-231 xenograft (setting [6]), 85%. The Inhibition % in the assay on MDA-MB-231 xenograft (setting [6]) turned out to be 15%. Further, in assay [1], the “Inhibition of colony formation” value is on record as “did not inhibit”. The “% Inhibition of colony formation” value in assay [2] came out at 21%. In addition, the Inhibition of ovulation entry in the assay on ovulation of female rats is listed as “did not inhibit the ovulation”. Moreover, in assay [3], the “Inhibition of cell proliferation” value is given as 40-39%. Also, the “LH-releasing effect compared with human GnRH” value in assay [4] was “about thousand times weaker”.

Take “Ac-D-Trp1,3,D-Cpa2,{Lys[n-poly(N-vinyl pyrrolidone-co-maleic acid)-]}5,[a-Asp(DEA)]6,D-Ala10-GnRH [Compound P-1892]”: in assay [5], the “% Inhibition of colony formation” value came to 26%. Also, in the assay on MCF-7 cells, the “% Inhibition of cell proliferation” value was found to be 0%.
